From US8952024B2, “Herbicidal pyrimidone derivatives” (E I du Pont de Nemours and Company, priority 2009, dated 2015)

Columns and labels:
Format in all cases: in vivo
[1] = system: velvetleaf (Abutilon theophrasti); test: Test A pre-/postemergence plant response
Procedure, shortened: (§1)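 Pre: directed soil spray on seeded loam/sand blend. Post: same formulation (non-phytotoxic solvent + surfactant) on 2–10 cm plants, 1–2 leaf stage. Greenhouse ~10 d; visual injury score 0–100 vs untreated.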

[2] = system: wheat (Triticum aestivum); test: Test A pre-/postemergence plant response
Procedure, shortened: as §1

[3] = system: barnyardgrass (Echinochloa crus-galli); test: Test A pre-/postemergence plant response
Procedure, shortened: as §1

[4] = system: corn (Zea mays); test: Test A pre-/postemergence plant response
Procedure, shortened: as §1

[5] = system: pigweed (Amaranthus retroflexus); test: Test A pre-/postemergence plant response
Procedure, shortened: as §1

[6] = system: giant foxtail (Setaria faberii); test: Test A pre-/postemergence plant response
Procedure, shortened: as §1

[7] = system: morningglory (Ipomoea spp.); test: Test A pre-/postemergence plant response
Procedure, shortened: as §1

[8] = system: large crabgrass (Digitaria sanguinalis); test: Test A pre-/postemergence plant response
Procedure, shortened: as §1

[9] = system: chickweed (Stellaria media); test: Test B postemergence plant response; conditions: for Chickweed plant response rating (0 to 100 scale): 62 g ai/ha, 0 is no effect, 13 to 15 days
Procedure, shortened: (§2)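 Visual ratings from 0 (no effect) to 100 (complete control), made against controls 13–15 days after treatment, kept in a greenhouse. Compounds were applied postemergence to potted plants at the 1- to 4-leaf stage (2–18 cm).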

[10] = system: windgrass (Apera spica-venti); test: Test B postemergence plant response; conditions: for Windgrass plant response rating (0 to 100 scale): 62 g ai/ha, postemergence, 0 is no effect, 100 is complete control, 13 to 15 days; for Plant response rating, Windgrass: Postemergence, 125 g ai/ha, scale 0 to 100 (0 no effect, 100 complete control)
Procedure, shortened: as §2

[11] = system: winter barley (Hordeum vulgare); test: Test B postemergence plant response; conditions: for Barley plant response rating (0 to 100 scale): 62 g ai/ha, 0 is no effect, 13 to 15 days
Procedure, shortened: as §2

[12] = system: canarygrass (Phalaris minor); test: Test B postemergence plant response; conditions: for Canarygrass plant response rating (0 to 100 scale): 62 g ai/ha, 0 is no effect, 13 to 15 days
Procedure, shortened: as §2

[13] = Postemergence, 125 g ai/ha, 0 to 100 scale where 0 is no effect and 100 is complete control
[14] = Postemergence, 500 g ai/ha, 0 to 100 scale, 0 = no effect, 100 = complete control, approx. ten days
[15] = Preemergence, 125 g ai/ha, 0 to 100 scale, 0 = no effect, 100 = complete control
[16] = Preemergence, 500 g ai/ha, visual injury, 0 to 100 scale (0 no effect, 100 complete control), approx. ten days
[17] = 31 g ai/ha, postemergence, scale 0 to 100, 0 is no effect, 100 is complete control
[18] = postemergence, 100 is complete control
[19] = Postemergence, 125 g ai/ha, scale 0 to 100 (0 no effect, 100 complete control)
[20] = Postemergence, 250 g ai/ha, scale 0 to 100 (0 no effect, 100 complete control)

CCCn1c(-c2ccc(F)cc2)ncc(C(=O)C2=C(O)CCCC2=O)c1=O [Compound 102]
Plant response rating, Velvetleaf [1, 13]: 100 | Plant response rating, Velvetleaf [1, 14]: 100 | Plant response rating, Velvetleaf [1, 15]: 80 | Plant response rating, Velvetleaf [1, 16]: 100 | Plant response rating, Wheat [2, 13]: 0 | Plant response rating, Wheat [2, 14]: 10 | Plant response rating, Wheat [2, 15]: 0 | Plant response rating, Wheat [2, 16]: 0 | Plant response rating, Barnyardgrass [3, 13]: 80 | Plant response rating, Barnyardgrass [3, 14]: 90 | Plant response rating, Barnyardgrass [3, 15]: 40 | Plant response rating, Barnyardgrass [3, 16]: 90 | Plant response rating, Corn [4, 13]: 0 | Plant response rating, Corn [4, 14]: 20 | Plant response rating, Corn [4, 15]: 0 | Plant response rating, Corn [4, 16]: 0 | Plant response rating, Pigweed [5, 13]: 100 | Plant response rating, Pigweed [5, 14]: 100 | Plant response rating, Pigweed [5, 15]: 60 | Plant response rating, Pigweed [5, 16]: 100 | Plant response rating, Foxtail, Giant [6, 13]: 80 | Plant response rating, Foxtail, Giant [6, 14]: 90 | Plant response rating, Foxtail, Giant [6, 15]: 80 | Plant response rating, Foxtail, Giant [6, 16]: 100 | Plant response rating, Morningglory [7, 13]: 100 | Plant response rating, Morningglory [7, 14]: 100 | Plant response rating, Morningglory [7, 15]: 80 | Plant response rating, Morningglory [7, 16]: 80 | Plant response rating, Crabgrass, Large [8, 13]: 90 | Plant response rating, Crabgrass, Large [8, 14]: 100 | Plant response rating, Crabgrass, Large [8, 15]: 80 | Plant response rating, Crabgrass, Large [8, 16]: 100 | Plant response rating, Chickweed [9, 17]: 60 | Chickweed plant response rating (0 to 100 scale) [9, 18]: 80 | Plant response rating, Chickweed [9, 19]: 95 | Plant response rating, Chickweed [9, 20]: 100 | Windgrass plant response rating (0 to 100 scale) [10]: 10 | Plant response rating, Windgrass [10]: 60 | Plant response rating, Barley [11, 17]: 0 | Barley plant response rating (0 to 100 scale) [11, 18]: 10 | Plant response rating, Barley [11, 19]: 30 | Plant response rating, Barley [11, 20]: 60 | Plant response rating, Canarygrass [12, 17]: 5 | Canarygrass plant response rating (0 to 100 scale) [12, 18]: 20 | Plant response rating, Canarygrass [12, 19]: 30 | Plant response rating, Canarygrass [12, 20]: 50

COCC(C)n1c(-c2ccccc2)ncc(C(=O)C2=C(O)CCCC2=O)c1=O (stereo not shown) [Compound 107]
Plant response rating, Velvetleaf [1, 13]: 100 | Plant response rating, Velvetleaf [1, 14]: 100 | Plant response rating, Velvetleaf [1, 15]: 100 | Plant response rating, Velvetleaf [1, 16]: 100 | Plant response rating, Wheat [2, 13]: 0 | Plant response rating, Wheat [2, 14]: 10 | Plant response rating, Wheat [2, 15]: 0 | Plant response rating, Wheat [2, 16]: 0 | Plant response rating, Barnyardgrass [3, 13]: 90 | Plant response rating, Barnyardgrass [3, 14]: 90 | Plant response rating, Barnyardgrass [3, 15]: 40 | Plant response rating, Barnyardgrass [3, 16]: 90 | Plant response rating, Corn [4, 13]: 0 | Plant response rating, Corn [4, 14]: 50 | Plant response rating, Corn [4, 15]: 20 | Plant response rating, Pigweed [5, 13]: 100 | Plant response rating, Pigweed [5, 14]: 100 | Plant response rating, Pigweed [5, 15]: 100 | Plant response rating, Pigweed [5, 16]: 100 | Plant response rating, Foxtail, Giant [6, 13]: 70 | Plant response rating, Foxtail, Giant [6, 14]: 90 | Plant response rating, Foxtail, Giant [6, 15]: 60 | Plant response rating, Foxtail, Giant [6, 16]: 90 | Plant response rating, Morningglory [7, 13]: 100 | Plant response rating, Morningglory [7, 14]: 100 | Plant response rating, Morningglory [7, 15]: 70 | Plant response rating, Morningglory [7, 16]: 100 | Plant response rating, Crabgrass, Large [8, 13]: 80 | Plant response rating, Crabgrass, Large [8, 14]: 90 | Plant response rating, Crabgrass, Large [8, 15]: 90 | Plant response rating, Crabgrass, Large [8, 16]: 100 | Plant response rating, Chickweed [9, 17]: 98 | Chickweed plant response rating (0 to 100 scale) [9, 18]: 100 | Plant response rating, Chickweed [9, 19]: 100 | Plant response rating, Chickweed [9, 20]: 100 | Windgrass plant response rating (0 to 100 scale) [10]: 40 | Plant response rating, Windgrass [10]: 80 | Plant response rating, Barley [11, 17]: 0 | Barley plant response rating (0 to 100 scale) [11, 18]: 5 | Plant response rating, Barley [11, 19]: 25 | Plant response rating, Barley [11, 20]: 30 | Plant response rating, Canarygrass [12, 17]: 5 | Canarygrass plant response rating (0 to 100 scale) [12, 18]: 15 | Plant response rating, Canarygrass [12, 19]: 60 | Plant response rating, Canarygrass [12, 20]: 80
